In patent EP3057951B1, “METHYLENE LINKED QUINOLINYL MODULATORS OF ROR-GAMMA-T” (Janssen Pharmaceutica NV, priority 2013, dated 2015):
Like-named read-outs stand apart in the source and are kept apart here.

What was measured:
[1] = target: T1, wild type human RORγt LBD (Homo sapiens, UniProt P51449); assay: RORγt (LBD) Reporter Assay (GAL4-luciferase, HEK293T cells); assay type: cell-based; settings: for inhibition at 6 µM: HEK-293T, read-out: RORγt (LBD) Reporter Assay, % inhibition @ 6 µM, 6 µM compound concentration; for RORγt (LBD) Reporter Assay, % inhibition @ 6 µM: 6 µM compound concentration
T1 construct: expressed in transfected cells; host or cells: HEK293T
T1 sequence (P51449 258-518): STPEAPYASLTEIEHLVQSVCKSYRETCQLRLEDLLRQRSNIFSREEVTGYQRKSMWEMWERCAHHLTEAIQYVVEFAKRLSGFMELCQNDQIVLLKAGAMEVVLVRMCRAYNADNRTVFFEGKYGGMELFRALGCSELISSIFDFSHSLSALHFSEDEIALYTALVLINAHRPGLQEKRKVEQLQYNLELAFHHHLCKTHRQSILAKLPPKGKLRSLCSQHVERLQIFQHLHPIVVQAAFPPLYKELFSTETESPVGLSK

[2] = target: T2, wild type human RORγt ligand binding domain (RORyt LBD) (Homo sapiens, UniProt P51449); assay: RORγt ThermoFluor assay (thermal shift, binding affinity KD)
T2 construct: His-tag (N); TurboTEV protease cleavage site (ENLYFQG) (N); made in house; host or cells: E. coli (pHIS1, modified pET vector)
T2 sequence (P51449 258-518): T1 sequence (P51449 258-518)

[3] = HEK293T cells, value after the comma with ∼, > or < could not be included in the average

IC50 [1, 3] | inhibition at 6 µM [1] | Kd [2] | RORγt (LBD) Reporter Assay, % inhibition @ 6 µM [1] | IC50 ([1]; HEK293T cells) | inhibition at 6 µM ([1]; HEK293T cells) | Structure (SMILES)
79 nM | 101% | 92 nM |  |  |  | COc1nc2ccc(C(O)(c3sc(C)nc3C)c3cnnn3C)cc2cc1Cc1ccc(C(F)(F)F)cc1 (racemic) [Example 92a, (2,4-Dimethylthiazol-5-yl)(2-methoxy-3-(4-(trifluoromethyl)benzyl)quinolin-6-yl)(1-methyl-1H-1,2,3-triazol-5-yl)methanol]
~900 nM | 99% | 1400 nM |  |  |  | Cn1cc(-c2nc3ccc(C(O)(c4ccc(C(F)(F)F)nc4)c4cncn4C)cc3c(Cl)c2Cc2ccccc2)cn1 (single isomer, unassigned) [Example 111b, (3-Benzyl-4-chloro-2-(1-methyl-1H-pyrazol-4-yl)quinolin-6-yl)(1-methyl-1H-imidazol-5-yl)(6-(trifluoromethyl)pyridin-3-yl)methanol]
5.3 nM |  | 0.96 nM | 99% |  |  | COc1nc2ccc(C(O)(c3cnnn3C)c3cnc(C)n3C)cc2c(Cl)c1Cc1ccc(C(F)(F)F)nc1 (single isomer, unassigned) [Example 43c, (4-Chloro-2-methoxy-3-((6-(trifluoromethyl)pyridin-3-yl)methyl)quinolin-6-yl)(1,2-dimethyl-1H-imidazol-5-yl)(1-methyl-1H-1,2,3-triazol-5-yl)methanol]
230 nM |  | 45 nM | 103% |  |  | CC(=O)N1CCC(C(O)(c2ccc(C(F)(F)F)nc2)c2cc(C)c3nc(C#N)c(Cc4ccc(-n5cccn5)cc4)c(C#N)c3c2)CC1 (single isomer, unassigned) [Example 79c, 3-(4-(1H-Pyrazol-1-yl)benzyl)-6-((1-acetylpiperidin-4-yl)(hydroxy)(6(trifluoromethyl)pyridin-3-yl)methyl)-8-methylquinoline-2,4-dicarbonitrile]
 |  | 9.4 nM |  | 290 nM | 100% | COc1nc2ccc(C(O)(c3ccc(C)nc3C)C3CN(C(=O)OC(C)(C)C)C3)cc2c(Cl)c1Cc1ccc(C(F)(F)F)cc1 (stereo not drawn) [Example 125, tert-Butyl-3-((4-chloro-2-methoxy-3-(4-(trifluoromethyl)benzyl)quinolin-6-yl)(2,6-dimethylpyridin-3-yl)(hydroxy)methyl)azetidine-1-carboxylate]
25 nM |  | 0.32 nM | 97% |  |  | COc1nc2ccc(C(O)(c3ccc(C)nc3C)c3cnnn3C)cc2c(Cl)c1Cc1ccc(N(C)C)cc1 (single isomer, unassigned) [Example 24c, (4-Chloro-3-(4-(dimethylamino)benzyl)-2-methoxyquinolin-6-yl)(2,6-dimethylpyridin-3-yl)(1-methyl-1H-1,2,3-triazol-5-yl)methanol]
< 2 nM | 97% | 1.2 nM |  |  |  | COc1nc2ccc(C(O)(c3cncn3C)c3cnnn3C)cc2c(Cl)c1Cc1ccc(C(F)(F)F)cc1 (single isomer, unassigned) [Example 89b, (4-Chloro-2-methoxy-3-(4-(trifluoromethyl)benzyl)quinolin-6-yl)(1-methyl-1H-1,2,3-triazol-5-yl)(1-methyl-1H-imidazol-5-yl)methanol]
500 nM | 96% | 530 nM |  |  |  | COc1nc2ccc(C(O)(c3ccc(Cl)cc3)c3cncn3C)cc2c(C#N)c1Cc1ccc(C(F)(F)F)cc1 (single isomer, unassigned) [Example 55b, 6-((4-Chlorophenyl)(hydroxy)(1-methyl-1H-imidazol-5-yl)methyl)-2-methoxy-3-(4-(trifluoromethyl)benzyl)quinoline-4-carbonitrile]
 |  | 240 nM |  | 670 nM | 93% | COc1nc2ccc(C(O)(c3cnnn3C)C3CNC3)cc2c(Cl)c1Cc1ccc(C(F)(F)F)cc1 (stereo not drawn) [Example 124, Azetidin-3-yl(4-chloro-2-methoxy-3-(4-(trifluoromethyl)benzyl)quinolin-6-yl)(1-methyl-1H-1,2,3-triazol-5-yl)methanol]
